This is an account of results in US20090156504A1, “METHODS OF TREATING BLOOD CELL DEPLETION” (ImmuneRegen Biosciences, Inc., priority 2007, published 2009).

For data set [1], the system named is Colony Forming Unit-Megakaryocyte (CFU-Mk) cultures. Description: Colony forming unit assay, CFU-Mk (Example 6). As to conditions: for effect of receptor antagonist on substance P-enhanced platelet colony formation: in the presence of substance P. It counts as cell-based, human. The source says:
(§1) As stem cells differentiate in response to growth factors, they form a colony of cells with distinct morphologies that can be visualized using a microscope. This study examined the formation of three different progenitor cell populations, erythrocytes, platelets and granulocytes/macrophages.
(§2) Bone marrow aspirates were obtained from three healthy donors between 18 and 35 years of age following appropriate guidelines and protocols. Bone marrow mononuclear cells were isolated using a Ficoll-Hypaque density gradient, separating red blood cells from the others. Cells from each donor were processed independently and used for setting up individual experiments to assess the effects, if any, of donor variability.
Cells (1×10^5) were plated in duplicate onto 35 mm tissue culture plates for each condition tested and set up as described in Rameshwar et al. 1993, Blood. 81:2, 391-398. Erythroid and granulocyte/macrophage cultures were plated using methylcellulose and megakaryocyte cultures (platelet precursors) used a collagen-based support (StemCell Technologies, Vancouver, Canada, catalogue #04973). […] CP 99,994 (Pfizer) was used as a neurokinin-1 receptor antagonist and SR 48968 (Sanofi) was used as a neurokinin-2 receptor antagonist.
Cultures were set up with limited cytokines and growth factors which would promote differentiation of one progenitor per plate.
Each compound was dissolved in endotoxin-free water to a final concentration of 0.1 mM. After reconstitution, the solutions were aliquoted into siliconized microcentrifuge tubes and exposed to nitrogen gas, eliminating oxygen in the head space of the enclosure. All aliquots were stored at −20° C. until use and used within one month of reconstitution. See, Rameshwar, et al. 1997, J. Immunol.
Cultures were incubated at 37° C. with 5% CO2 for approximately 14 days, after which colonies were manually enumerated using a microscope. […]

For data set [2], the system named is human bone marrow-derived hematopoietic cell populations. Description: CFC differentiation and ATP proliferation assays, overall statements on the seven cell populations (Examples 4 and 5). It counts as cell-based. Here is the method:
The compound was dissolved in 1 ml of Iscove's Modified Dulbecco's Medium (IMDM) and a serial dose response prepared in single log doses so that the final dose in culture ranged from 1 nM to 1×10^−16 M. All working dilutions were performed in IMDM.
Starting with human bone marrow aspirate, the mononuclear cell (MNC) fraction was separated from the whole bone marrow using Ficoll-Paque density gradient centrifugation. […] The cell concentration was adjusted so that the final cell concentration in culture was 10,000 cells/well.
Human bone marrow MNC was dissolved in IMDM and cultured at a concentration of 10,000 cell/well in a CAMEO™-96 Master Mix (HemoGenix, Inc., Colorado Springs, Colo.). Master Mix is a HemoGenix proprietary cell culture media comprised of a serum mix (4 parts), a methyl cellulose mix (4 parts) and a growth factor mix (1 part) with the bone marrow target cells (1 part). See, Rich and Hall 2005, Toxicol. Sci. 87(2): 427-441.
Different combinations and concentrations of growth factors are used to induce differentiation of cells into specific cell types. […]
Prior to processing all 96-well plates, the total colony counts/well were manually enumerated by microscopy. The mean, standard deviation and percent coefficient of variation was calculated for all groups, transposed and plotted. The intracellular ATP (iATP) concentration was measured after manual enumeration. The output of the luminometer is non-standardized Relative Luminescence Units (RLU). […] This allowed the RLU values to be automatically calculated into standardized ATP (μM) units. For both the RLU and ATP values derived from each well, the luminometer software calculated the mean, standard deviation and percent coefficient of variation. […]

The test system of data set [3] is Blast Forming Unit—Erythroid (BFU-E) cultures. Description: Colony forming unit assay, BFU-E (Example 6). Format: cell-based. To be noted: human bone marrow cells, about 14 days, FIG. 1; control = zero level.
Description: as §1, §2
(§3) Cells (1×10^5) were plated in duplicate onto 35 mm tissue culture plates for each condition tested and set up as described in Rameshwar et al. 1993, Blood. 81:2, 391-398. Erythroid and granulocyte/macrophage cultures were plated using methylcellulose and megakaryocyte cultures (platelet precursors) used a collagen-based support (StemCell Technologies, Vancouver, Canada, catalogue #04973). […] CP 99,994 (Pfizer) was used as a neurokinin-1 receptor antagonist and SR 48968 (Sanofi) was used as a neurokinin-2 receptor antagonist. […]

The test system of data set [4] is Colony Forming Unit—Erythroid (CFU-E) cultures. Description: Colony forming unit assay, CFU-E (Example 6). It counts as cell-based. As to conditions: human bone marrow cells, about 14 days, FIG. 2.
Description: as §1, §2, §3

On to `COc1ccccc1CN[C@H]1CCCN[C@H]1c1ccccc1` [CP-99,994], for which the “effect of receptor antagonist on substance P-enhanced platelet colony formation” value in data set [1] is listed as “blocks the stimulatory activity of substance P”.

Regarding `CC(C)C[C@H](NC(=O)CN(C)C(=O)[C@H](Cc1ccccc1)NC(=O)[C@H](Cc1ccccc1)NC(=O)[C@H](CCC(N)=O)NC(=O)[C@H](CCC(N)=O)NC(=O)[C@@H]1CCCN1C(=O)[C@H](CCCCN)NC(=O)[C@@H]1CCCN1C(=O)[C@@H](N)CCCNC(=N)N)C(=O)N[C@@H](CCS(C)(=O)=O)C(N)=O` [Homspera®], in data set [2] (Example 4, levels tested (10^−16 M to 1 nM)), the “toxicity to T-CFC and B-CFC” value is recorded as “do not demonstrate toxicity at the levels tested”. The cytotoxicity entry in data set [2] (Example 4, most of populations, 14 days, 10^−16 M to 1 nM) is “apparent absence of distinct cytotoxicity”. Also, in data set [2] (Example 5, three donors, seven cell populations, highest doses (1 nM)), the “toxicity in CFC assay” value is listed as “no apparent toxicity at the highest doses”.

For the compound `CC(=O)NC1(c2ccccc2)CCN(CC[C@H](CN(C)C(=O)c2ccccc2)c2ccc(Cl)c(Cl)c2)CC1` [SR48968], the “effect of receptor antagonist on substance P-enhanced platelet colony formation” value in data set [1] is given as “showed no effect on substance P activity”.

As to RPKPQQFFGLM-NH2 [substance P], the “BFU-E colony increase from control values” in data set [3] is recorded as approximately 60%. In addition, the “CFU-E colony formation enhancement from control values” in data set [4] is recorded as “about 70%”. Further, the “effective concentration for platelet precursors” value in data set [1] (approximately 2-fold stimulation) is listed as 10^−8 M.
